Experimental data from US20050042281A1, “Compositions for delivering therapeutic agents across the oral mucosa” (priority 2003, published 2005).

Columns and labels:
[1] = pH at which net charge is zero; cited from earlier work
[2] = Extent of un-ionized form at a given pH, worked out from pKa; assay type: physicochemical
From the text: Conversion of the ionized form to the un-ionized form for basic agents is related to pH by the formula: pH=pKa +Log10 (Un-ionized concentration/Ionized concentration). When the pH is the same as the pKa, equimolar concentrations of the unionized form and ionized form exist. […] Similarly, when the pH is two units higher than the pKa, the ratio of un-ionized form to the ionized form is 100:1. As noted above, the un-ionized form is lipophilic and, therefore, more capable of passing through the mucous membranes than the ionized form, which is lipophobic in nature. Accordingly, increasing the pH of the saliva favors conversion of the ionized form into the un-ionized form for basic agents, and the final pH may be determined by making use of the above formula for any basic agent.

in vitro = settings: PAMPA
Procedure: (§1) This assay uses a lipid-coated membrane to predict lipid mucosal membrane penetration.
(§2) The membrane apparatus consists of a dodecane membrane sandwiched between a donor and acceptor cell.
(§3) Membrane assays were performed using oxycodone HCl solutions at a pH of 6.5, 9.5, and 10.0. The pH of the solutions was adjusted using a freshly prepared 0.01 M sodium bicarbonate—sodium carbonate buffer. Permeation was measured by determining the concentrations of oxycodone in the acceptor cell and is expressed as Pe (effective permeability in centimeters per second).

[3] = Membrane assay (parallel artificial membrane, effective permeability); settings: for Papp: PAMPA
Procedure: as §1, §2, §3

CN1CCC23c4c5ccc(O)c4OC2C(O)C=CC3C1C5 (stereo not shown) [morphine]
isoelectric point [1]: 9.1

CNS(=O)(=O)Cc1ccc2[nH]cc(CCN(C)C)c2c1 [Sumatriptan, sumatriptan]
un-ionized ([2]; at pH 10.5): 99%
un-ionized ([2]; at pH 11.5): 100%
Papp (in vitro; pH 9): 599 ×10⁻⁶ cm/s
Papp (in vitro; pH 9.5): 945 ×10⁻⁶ cm/s
Papp (in vitro; pH 10): 1560 ×10⁻⁶ cm/s

Cc1nccn1CC1CCc2c(c3ccccc3n2C)C1=O (stereo not shown) [Ondansetron]
increase of effective permeability ([3]; pH 8.5 relative to pH 5.4): > 1000%
increase of effective permeability ([3]; pH 8.5 relative to pH 7.4): more than 200%

COc1ccc2c3c1O[C@H]1C(=O)CC[C@@]4(O)[C@@H](C2)N(C)CC[C@]314 [Oxycodone, oxycodone]
un-ionized ([2]; at pH 9.9): 99%
un-ionized ([2]; at pH 10.9): 100%
Papp ([3]; pH 6.5): 227 ×10⁻⁶ cm/s
Papp ([3]; pH 9.5): 490 ×10⁻⁶ cm/s
Papp ([3]; pH 10): 554 ×10⁻⁶ cm/s
